The values that follow come from the RepoRT retention time repository.

This data set is described as follows: Waters ACQUITY UPLC HSS T3, 0.4 mL/min; A: water + 0.1% formic acid; B: acetonitrile + 0.1% formic acid; gradient (min/%B) 0/5 1.5/5 12/95 14/95 14.01/100 17/100. The note with it: stereoisomer not certain.
On to `CCCCCC(=O)OCCC(CCC)SC` (configuration not stated), for which the LC retention time turned out to be 3.91 min.

For the compound `CC=CC=CC=CC1=NCCCC1`, the LC retention time stood at 9.09 min.

Consider `CCC(C)C(C(=O)NC(C(=O)NC1C(=O)NC(Cc2c[nH]c3ccccc23)C(=O)NCC(=O)c2ccc(cc2)OC1(C)C)C(C)C)N(C)C` (configuration not stated), for which the LC retention time is 5.47 min.

Take `COC1(CCC(C)COC2OC(CO)C(O)C(O)C2O)OC2CC3C4CCC5CC(=O)CCC5(C)C4CCC3(C)C2C1C` (configuration not stated): the LC retention time amounted to 9.93 min.

`CC1(C)C2C(O)CC(C)(C2O)C1OC1OC(CO)C(O)C(O)C1O` (configuration not stated): the LC retention time was determined as 3.99 min.

Regarding `CC(CCC(=O)NCCS(=O)(=O)O)C1CCC2C3C(O)CC4CC(O)CCC4(C)C3CC(O)C12C` (configuration not stated), the LC retention time was determined as 4.43 min.

On to `CC1=C2C(CC3(C)OC3CCC3(C)OC3C2O)OC1=O` (configuration not stated), for which the LC retention time was 6.31 min.

`CC(=O)C1CCC2C3CC=C4CC(O)CCC4(C)C3CCC12C` (configuration not stated): the LC retention time is 11.8 min.

For `C[N+](C)(C)CCOP(=O)([O-])OCC(O)CO` (configuration not stated), the LC retention time stood at 0.761 min.

In the case of `Nc1nc2c(c(=O)[nH]1)NC(C(O)C(O)COP(=O)(O)OP(=O)(O)OP(=O)(O)O)C(O)N2O` (configuration not stated), the LC retention time amounted to 5.68 min.

As for `NC(CCC(=O)O)C(=O)O` (configuration not stated), the LC retention time came out at 0.786 min.

As for `CCCCCCCCCCCCCCCCCCOC(=O)C(O)(CC(=O)O)CC(=O)O`, the LC retention time was found to be 10.5 min.

As for `C=C1CCC2C(OC(=O)C2(O)CO)C2C(C)C(=O)CC12` (configuration not stated), the LC retention time was 6.31 min.

As to `CN1C2CCC1(O)C(O)C(O)C2O` (configuration not stated), the LC retention time is 1.05 min.

As for `CCCCCC(N)C(=O)O` (configuration not stated), the LC retention time came to 0.772 min.

`O=c1[nH]cnc2nc[nH]c12`: the LC retention time turned out to be 1.1 min.

As for `NCCCCC(=O)O`, the LC retention time stood at 1.02 min.

As to `CCCCCCCCCCCCCCCCCCC(=O)OCC(O)COP(=O)(O)OCC(N)C(=O)O` (configuration not stated), the LC retention time was 5.17 min.

In the case of `CCC(C)C(=O)OC(CC(=O)[O-])C[N+](C)(C)C` (configuration not stated), the LC retention time worked out at 4.04 min.

As for `CN1CC(c2ccc(O)cc2)OC1(C)C` (configuration not stated), the LC retention time was 4.98 min.

Turning to `CCCCCC(C)S` (configuration not stated), the LC retention time turned out to be 1.3 min.

On to `COc1cc(CCCO)ccc1OC(CO)COC1OCC(O)C(O)C1O` (configuration not stated), for which the LC retention time is 0.755 min.

Regarding `Nc1nc2c(ncn2CCC(CO)CO)c(=O)[nH]1`, the LC retention time was 1.03 min.

Take `CCCCCC=CCC=CCCCCCCCC(=O)OCC(COP(=O)(O)OCC(O)CO)OC(=O)CCCCCCCC=CCCCCCC` (configuration not stated): the LC retention time was 13.9 min.

In the case of `C[N+](C)(C)CC(O)CC(=O)[O-]` (configuration not stated), the LC retention time came out at 0.75 min.

On to `CC1(O)CCC(C(C)(C)OC2OC(CO)C(O)C(O)C2O)CC1O` (configuration not stated), for which the LC retention time stood at 5.08 min.

In the case of `CNC(CCC(=O)O)C(=O)O` (configuration not stated), the LC retention time is 0.912 min.

With `CC1=CC(=O)C2(C(C)C)C(=O)C3=C(C(O)C4OC(=O)C35CCCC(C)(C)C45)C12` (configuration not stated), the LC retention time was 10.6 min.

As to `C=C(C)C1CCC(C)(O)C1CC1=C(O)C(=C(O)c2ccccc2)C(=O)C(CC=C(C)C)(CC=C(C)C)C1=O` (configuration not stated), the LC retention time came to 8.61 min.

Take `CCCCCCCCCCCCCCCCCC(=O)OC(CO)COP(=O)(O)OCC(O)CO` (configuration not stated): the LC retention time worked out at 5.64 min.

For `Nc1cncn1C1OC(COP(=O)(O)O)C(O)C1O` (configuration not stated), the LC retention time was 0.711 min.

Regarding `CSCCC(N)C(=O)O` (configuration not stated), the LC retention time is 1.04 min.

In the case of `CCCCC(S)CCOC` (configuration not stated), the LC retention time was determined as 0.75 min.

For the compound `CC1(C)C(O)CC(O)C23C(=O)OC4OCC(=CCC12)C43` (configuration not stated), the LC retention time worked out at 6.31 min.

Consider `CC(C)CC(NC(=O)OC(C)(C)C)C(=O)O` (configuration not stated), for which the LC retention time is 3 min.

For `Nc1ncnc2c1ncn2C1OC(CO)C(OP(=O)(O)O)C1O` (configuration not stated), the LC retention time is 0.934 min.

In the case of `CC(C)C(N)C(=O)O` (configuration not stated), the LC retention time worked out at 1.02 min.

Regarding `CC(CP(CCCCCCS(=O)(=O)[O-])CCCCCCS(=O)(=O)[O-])P(CCCCCCS(=O)(=O)[O-])CCCCCCS(=O)(=O)[O-]` (configuration not stated), the LC retention time was found to be 1.02 min.

Take `CC(C)SC(C)C`: the LC retention time was found to be 1.02 min.

In the case of `Oc1cc(O)c2c(c1)OC(c1cc(O)c(O)c(O)c1)C(O)C2` (configuration not stated), the LC retention time stood at 1.05 min.

Consider `CSCCC(N)C(=O)NC(CCCN=C(N)N)C(=O)O` (configuration not stated), for which the LC retention time was determined as 3.75 min.

As to `CC(C)=CC1c2[nH]c3ccccc3c2CC2C(=O)N3CCCC3C(=O)N21` (configuration not stated), the LC retention time stood at 3.99 min.

With `CC(=CC(O)C1OC1(C)C)C1CCC2(C)C1C(O)CC1C3(C)CCC(O)C(C)(C)C3C(OC3OC(CO)C(O)C(O)C3O)CC12C` (configuration not stated), the LC retention time turned out to be 9.9 min.

On to `O=S(=O)([O-])CCCCCCCP(CCCCCCCS(=O)(=O)[O-])CN(CP(CCCCCCCS(=O)(=O)[O-])CCCCCCCS(=O)(=O)[O-])c1ccccc1`, for which the LC retention time was 1.3 min.

With `CC(C)C(=O)OC(CC(=O)[O-])C[N+](C)(C)C` (configuration not stated), the LC retention time worked out at 3 min.

For the compound `CC1CCC2(C(=O)O)CCC3(C)C(=CC(=O)C4C5(C)CCC(OC(=O)c6ccccc6)C(C)(C)C5CCC43C)C2C1C` (configuration not stated), the LC retention time stood at 11 min.

In the case of `CC1(C)OC2(C)CC(O)C1CC2OC1OC(CO)C(O)C(O)C1O` (configuration not stated), the LC retention time was 3.99 min.

For the compound `O=C(O)CCCSCCCCSCCCC(=O)O`, the LC retention time came out at 0.766 min.

For the compound `CCCCCC(O)C=CC1OC(O)CC(O)C1CC=CCC(=O)O` (configuration not stated), the LC retention time was determined as 8.51 min.

On to `CCCCCCCCCCCCCCCCCCCCCCCCC(=O)NCC(=O)O`, for which the LC retention time worked out at 9.77 min.

In the case of `CC(C)C1=CC2(O)CCC3C(C)(C(=O)O)CCCC3(C)C2CC1=O` (configuration not stated), the LC retention time turned out to be 4.99 min.

Regarding `Nc1[nH]c(=O)nc2c1ncn2C1CC(O)C(COP(=O)(O)O)O1` (configuration not stated), the LC retention time came to 0.934 min.

In the case of `CC1CCC(C(C)(O)CO)CC1OC1OC(CO)C(O)C(O)C1O` (configuration not stated), the LC retention time was 5.08 min.

With `CC(=O)C1OC1(O)C(C)=CC=CC(C)=CC=CC=C(C)C=CC=C(C)C=CC1=C(C)CCCC1(C)C` (configuration not stated), the LC retention time is 10.4 min.

On to `CN(C)C`, for which the LC retention time came out at 0.706 min.

On to `CCCC(N)C(=O)O` (configuration not stated), for which the LC retention time was found to be 1.02 min.

In the case of `CC1=CC(O)CC(C)(C)C1(O)C=CC(C)OC1OC(COC2OCC(O)(CO)C2O)C(O)C(O)C1O` (configuration not stated), the LC retention time came to 4.44 min.

As to `CC(=CC(=O)OC1OC(CO)C(O)C(O)C1O)CCC=C(C)CCC(O)C(C)(C)O` (configuration not stated), the LC retention time is 9.03 min.

Regarding `CCC=CCC=CCC=CCC=CCC=CCC=CCCC(=O)OCC(O)COP(=O)(O)OCCN` (configuration not stated), the LC retention time worked out at 4.65 min.

`C=C(CCC)C(N)C(=O)O` (configuration not stated): the LC retention time amounted to 0.818 min.

`CC1(OC2OC(CO)C(O)C(O)C2O)CC(O)C2(C(C)(C)O)CC12` (configuration not stated): the LC retention time turned out to be 3.99 min.

As to `CCCC(=O)OCCC(S)CCC` (configuration not stated), the LC retention time stood at 0.838 min.

`CCCCCC(=O)CCOC1OC(CO)C(O)C(O)C1O` (configuration not stated): the LC retention time turned out to be 4.89 min.

As to `CC(C)CC(N)C(=O)O` (configuration not stated), the LC retention time stood at 1.31 min.

Regarding `CC12CCC(=O)C=C1CCC1C2C(O)CC2(C)C(C(O)CC(=O)O)CCC12` (configuration not stated), the LC retention time is 5.01 min.

For `CCCCCCCCCCCCCCCC(=O)OCC(COP(=O)([O-])OCC[N+](C)(C)C)OC(=O)CCCC(O)C=CC=O` (configuration not stated), the LC retention time came to 5.43 min.

On to `NC(=O)c1cccnc1`, for which the LC retention time is 1.06 min.

With `CC1C(=O)OC2C3=C(C(=O)CC3(C)O)C(C)(O)CCC12` (configuration not stated), the LC retention time was found to be 6.31 min.

Consider `CCC(C)C(N)C(=O)O` (configuration not stated), for which the LC retention time came out at 1.31 min.

As to `CC(=O)NC(CC(C)C)C(=O)NC(CC(C)C)C(=O)NC(C=O)CCCN=C(N)N` (configuration not stated), the LC retention time came out at 12.2 min.

Take `CC(C=CCC1C(=O)CCC1CC(=O)O)OC1OC(CO)C(O)C(O)C1O` (configuration not stated): the LC retention time stood at 0.755 min.

As for `CC(=O)OCCC(N)C(=O)O` (configuration not stated), the LC retention time came to 0.912 min.

Consider `CCCCCC(O)C=CC1C(O)CC(O)C1CC(=O)CCC(=O)O` (configuration not stated), for which the LC retention time was found to be 8.51 min.

Regarding `OCCOCCOCCOCCOCCOCCOCCO`, the LC retention time turned out to be 3.99 min.

Consider `C=CC(C)(CCC=C(C)CCC=C(C)CCC(OC1OC(CO)C(O)C(O)C1O)C(C)(C)O)OC1OC(CO)C(O)C(O)C1O` (configuration not stated), for which the LC retention time came out at 4.81 min.

On to `O=C(O)CC1CCC(=O)C1CC=CCCOC1OC(CO)C(O)C(O)C1O` (configuration not stated), for which the LC retention time came out at 0.755 min.

In the case of `CCC1OC(=O)C(C)C(OC2CC(C)(O)C(O)C(C)O2)C(C)C(O)C(C)(O)CC(C)C(=O)C(C)C(O)C1C` (configuration not stated), the LC retention time was found to be 9.82 min.

Take `CC(C)=CCCC(C)CCOC1OC(CO)C(O)C(O)C1OC1OC(CO)C(O)C(O)C1O` (configuration not stated): the LC retention time amounted to 4.52 min.

Consider `CC(O)C1CCC2C3CCC4=CC(=O)CCC4(C)C3CCC12C` (configuration not stated), for which the LC retention time was 11.8 min.

Regarding `O=C(OCC1OC(Oc2ccc(C=Cc3cc(O)cc(O)c3)cc2O)C(O)C(O)C1O)c1cc(O)c(O)c(O)c1` (configuration not stated), the LC retention time came to 1.11 min.

For the compound `CCC(C)C(=O)OC1CC(C)(O)C=C2C=CC(C)C(CCC3CC(O)CC(=O)O3)C21` (configuration not stated), the LC retention time stood at 5.18 min.

In the case of `CCC(C)C(N)C(=O)NC(CCC(=O)O)C(=O)O` (configuration not stated), the LC retention time is 1.05 min.

Turning to `CC(CCC(=O)NCCS(=O)(=O)O)C1CCC2C3C(O)C(O)C4CC(O)CCC4(C)C3CCC12C` (configuration not stated), the LC retention time turned out to be 4.43 min.

Take `CCCCCC=CCC=CCCCCCCCC(=O)OC(COC(=O)CCCCCCCC=CCCCCCC)COP(=O)(O)OCC(O)CO` (configuration not stated): the LC retention time is 13.9 min.

`NCCC(=O)O`: the LC retention time is 0.806 min.

`CCCCCCC=CCCCCCCCC(=O)OCC(COP(=O)(O)OCC(O)CO)OC(=O)CCCCCCCC=CCCCCCC` (configuration not stated): the LC retention time is 13 min.

As to `CCCCC(CC)CS` (configuration not stated), the LC retention time was 0.766 min.

On to `CNCC(=O)O`, for which the LC retention time stood at 0.806 min.

Take `CC(C)=CCCC(C)(OC1OC(CO)C(O)C(O)C1O)C1CCC2(C)C1C(O)CC1C3(C)CCC(OC4OC(CO)C(O)C(O)C4O)C(C)(C)C3CCC12C` (configuration not stated): the LC retention time worked out at 9.82 min.

With `CCC=CCC(O)C=CC=CC=CC=CC(O)C(O)CC=CCCC(=O)O` (configuration not stated), the LC retention time was 5.01 min.

With `CC(C)=CCCC(C)(O)C1CCC2(C)C1C(O)CC1C3(C)CCC(OC4OC(CO)C(O)C(O)C4OC4OC(CO)C(O)C(O)C4O)C(C)(C)C3CCC12C` (configuration not stated), the LC retention time turned out to be 9.82 min.

Regarding `CC(C)C(CCC(C)C1CC(O)C2C1(C)CCC1C3(C)CCC(OC4OCC(O)C(O)C4O)CC3C(O)CC12O)OC1OCC(O)C(O)C1O` (configuration not stated), the LC retention time came to 5.56 min.
